Test systems include OVCAR-4 ovarian; HCC-2998 colon; SW-620 colon; SNB-19 CNS.
Common to all, as to assay: NCI anticancer screen, dose series, 48 h

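96-well plates; 48 h exposure; 5 concentrations. Endpoints by linear interpolation between flanking doses. Not reached: highest tested concentration assigned. The concentration for full growth arrest is given as TGI.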

Turning to `CCOC(=O)C(NNS(=O)(=O)c1ccc(C)cc1)S(=O)(=O)C(F)(F)C(F)(F)C(F)(F)C(F)(F)F` (stereo not given), the TGI in the experiment with OVCAR-4 ovarian, in the experiment with HCC-2998 colon, in the experiment on SW-620 colon and in the experiment with SNB-19 CNS was greater than 100 µM each time.

In the case of `CC(=O)OCc1nc(C#N)c(N)o1`, the TGI in the experiment with OVCAR-4 ovarian, in the experiment on HCC-2998 colon, in the experiment with SW-620 colon and in the experiment with SNB-19 CNS was greater than 100 µM in each case.

As for `O=C1CCC(=O)N1CNc1ccc2c(c1)Sc1ccccc1O2`, the TGI in the experiment with OVCAR-4 ovarian, in the experiment with SW-620 colon and in the experiment on SNB-19 CNS was greater than 100 µM in each case.

For the compound `O=C(Sc1c(-c2ccccc2)c(=O)n(-c2ccccc2)c(=S)n1-c1ccccc1)c1ccc(Cl)cc1`, the TGI with OVCAR-4 ovarian, in the experiment on HCC-2998 colon, in the experiment with SW-620 colon and in the experiment with SNB-19 CNS was greater than 100 µM in each case.

With `Cc1ccc(SCC(OCn2cnc3c(N)ncnc32)[C@H](C)F)cc1` (stereo not given in full), the TGI in the experiment with OVCAR-4 ovarian, in the experiment with HCC-2998 colon, with SW-620 colon and in the experiment with SNB-19 CNS was greater than 100 µM throughout.

For `CC(=O)OCC1OC(n2c(C)c(N=Nc3ccc(C)cc3)c(C)c(C#N)c2=S)C(OC(C)=O)C(OC(C)=O)C1OC(C)=O` (stereo not given), the TGI with OVCAR-4 ovarian, in the experiment with HCC-2998 colon, in the experiment on SW-620 colon and in the experiment with SNB-19 CNS was greater than 100 µM throughout.

For `c1ccc(N/N=C2\CC(c3ccccc3)Oc3ccccc32)cc1` (stereo not given), the TGI in the experiment on OVCAR-4 ovarian, in the experiment on HCC-2998 colon, in the experiment with SW-620 colon and with SNB-19 CNS was greater than 100 µM in each case.

Turning to `CCCSc1cc(Cl)c(C)cc1S(=O)(=O)n1cc[nH]c1=O`, the TGI with OVCAR-4 ovarian, in the experiment on HCC-2998 colon, in the experiment on SW-620 colon and in the experiment with SNB-19 CNS was greater than 100 µM each time.

As to `O=C(O)CN1CCNCCN(CC(=O)O)CC1`, the TGI with OVCAR-4 ovarian is greater than 100 µM; in the experiment with HCC-2998 colon it was 55.7 µM; with SW-620 colon it was greater than 100 µM; in the experiment on SNB-19 CNS, greater than 100 µM.

`COC(=O)c1ccccc1C1CN=NC12Cc1c(C)cc(C)cc1C2=O` (stereo not given): the TGI in the experiment with OVCAR-4 ovarian, in the experiment with HCC-2998 colon, in the experiment on SW-620 colon and in the experiment on SNB-19 CNS was greater than 100 µM in each case.

As for `CC(=O)N1NC(c2ccccc2)=CC(=O)/C1=C/C(=O)c1ccccc1`, the TGI in the experiment on OVCAR-4 ovarian, in the experiment with HCC-2998 colon and in the experiment on SNB-19 CNS was greater than 100 µM each time.

Take `C[C@]12CC[C@@H]3c4ccc(OC(=O)c5ccccc5)cc4CC[C@H]3[C@@H]1CCC2OC(=O)c1cccc2c(=O)c3ccccc3[nH]c12` (stereo not given in full): the TGI came out at 33.8 µM in the experiment with OVCAR-4 ovarian, 30 µM in the experiment with HCC-2998 colon, 24.5 µM in the experiment on SW-620 colon and 80.6 µM in the experiment on SNB-19 CNS.

Turning to `C1COC2SC3=C(SC(=C4SC5=C(SCCS5)S4)S3)SC2O1` (stereo not given), the TGI in the experiment with OVCAR-4 ovarian, with HCC-2998 colon, with SW-620 colon and in the experiment on SNB-19 CNS was greater than 100 µM each time.

As to `CCOC(=O)/C(C#N)=C(/NS(=O)(=O)c1cc(C)c(Cl)cc1[S-])[n+]1ccc(N(C)C)cc1`, the TGI in the experiment on OVCAR-4 ovarian, in the experiment on HCC-2998 colon and in the experiment with SNB-19 CNS was greater than 100 µM in each case.

Regarding `O=S(=O)(O)c1cc(S(=O)(=O)O)c2c(N=Nc3cccc4ccccc34)c(O)ccc2c1`, the TGI in the experiment with OVCAR-4 ovarian, in the experiment on HCC-2998 colon, in the experiment with SW-620 colon and with SNB-19 CNS was greater than 100 µM in each case.

As to `CCCCCCCC1c2cc3[nH]c(cc4nc(cc5[nH]c(cc(n2)[C@@]1(C)CC(=O)N(C)C)c(C)c5CCC(=O)O)C(CCC(=O)O)=C4C)cc3C` (stereo not given in full), the TGI is greater than 100 µM in the experiment with OVCAR-4 ovarian, 37.8 µM in the experiment with HCC-2998 colon, greater than 100 µM with SW-620 colon and 36.9 µM with SNB-19 CNS.

In the experiment on HCC-2998 colon, `COc1ccc(-c2oc3c(CC(=O)O)cccc3c(=O)c2OC)cc1` showed a TGI greater than 100 µM.

Turning to `COc1cccc2c1C(=O)C(=O)c1c-2oc(=O)c2cc(C)cc(OC)c12`, the TGI with OVCAR-4 ovarian is 26.7 µM; in the experiment with HCC-2998 colon, 37.6 µM; in the experiment with SW-620 colon, greater than 75 µM; with SNB-19 CNS it was greater than 75 µM.

In the case of `NCCCNc1ccc2c(c1)[n+]([O-])c1ccccc1[n+]2[O-]`, the TGI in the experiment on OVCAR-4 ovarian is 92.6 µM; in the experiment on HCC-2998 colon, greater than 100 µM; in the experiment on SW-620 colon it was greater than 100 µM; in the experiment on SNB-19 CNS it was greater than 100 µM.

With `COC1Cc2c(C)c(OC(C)=O)c3cccnc3c2O1` (stereo not given), the TGI in the experiment with OVCAR-4 ovarian was 30.1 µM; in the experiment with HCC-2998 colon, greater than 100 µM; in the experiment with SW-620 colon, 27.9 µM; in the experiment with SNB-19 CNS it was greater than 100 µM.

Regarding `CCOC(=O)Cc1ccc(Nc2nc3cc(C(F)(F)F)ccc3nc2C(=O)OCC)cc1`, the TGI with OVCAR-4 ovarian, in the experiment on SW-620 colon and in the experiment on SNB-19 CNS was greater than 100 µM each time.

As to `CC12CN(CC[N+](C)(C)C)CC1(C)C1CCC2O1` (stereo not given), the TGI with OVCAR-4 ovarian, in the experiment on HCC-2998 colon, in the experiment with SW-620 colon and in the experiment with SNB-19 CNS was greater than 100 µM in each case.

Consider `Cc1nnc(Nc2ccc(Cl)cc2)o1`, for which the TGI with OVCAR-4 ovarian, in the experiment on HCC-2998 colon, with SW-620 colon and in the experiment on SNB-19 CNS was greater than 10 µM throughout.

Take `Cc1cc(Cl)nc(NC(=O)CSc2ccc(Cl)cc2)n1`: the TGI in the experiment with HCC-2998 colon, in the experiment on SW-620 colon and in the experiment on SNB-19 CNS was greater than 100 µM in each case.

Take `CC(=O)O[C@H]1CC[C@H]2[C@@H]3CCc4cc(O)c(I)cc4[C@H]3CC[C@]12C`: the TGI in the experiment with OVCAR-4 ovarian is 28 µM; with HCC-2998 colon it was 32.2 µM; in the experiment on SW-620 colon it was 27.7 µM; in the experiment on SNB-19 CNS, 32.3 µM.

With `CC(=O)C1(c2ccccc2)CCN(Cn2sc3nc(C)cc(C)c3c2=O)CC1`, the TGI was 48 µM with OVCAR-4 ovarian, 72.7 µM in the experiment on HCC-2998 colon, greater than 100 µM with SW-620 colon and greater than 100 µM in the experiment on SNB-19 CNS.

For `COC(C)(C)C(O)C(O)C[C@H](C)C1CC=C2C1(C)CCC1[C@@]3(C)CCC(OC(C)=O)C(C)(C)C3CC(OC3OC(COC(C)=O)C(O)C(O)C3O)[C@@]21C` (stereo not given in full), the TGI is greater than 10 µM in the experiment with OVCAR-4 ovarian, 6.15 µM in the experiment on HCC-2998 colon, greater than 10 µM in the experiment on SW-620 colon and greater than 10 µM with SNB-19 CNS.

The values are drawn from PubChem BioAssay (NCI).
